Reference: US7563862B2, “Neural regeneration peptides and methods for their use in treatment of brain damage” (Neuren Pharmaceuticals Limited, priority 2001, dated 2009)
Ends that are not written are not given here.

Experiments:
[1] = tested on: un-injured cerebellar microexplants; test: proliferation induction without injury, cerebellar microexplants; format: cell-based, rat
Description: FIG. 17 depicts results of proliferation induction without injury using NRP-2 segment KG (SEQ ID NO: 18) and rat NRP-1 (SEQ ID NO: 2). Peptides were administered 24hrs after start of cultivation to decrease interference in the assay due to initial neuronal survival or adherence effects. The cultures were fixed after 3 days in vitro. There was neuronal proliferation seen at 300 μM of NRP-2 segment KG (SEQ ID NO: 18).
Within the applied proliferation assay rat NRP-1 (SEQ ID NO:2) and NRP-2KS (SEQ ID NO:23) were tested for neuronal proliferation inducing activity (see FIG. 19). In order to discriminate proliferation from increased survival and cellular adhesion properties, NRP-2 KS (SEQ ID NO:23) was administered 24 hrs after the start of cultivation. Rat NRP-1(SEQ ID NO:2) had specific effects on neuronal proliferation, (see FIGS. 7, 9 and 10). Neuronal proliferation induced by NRP-2KS (SEQ ID NO:23) occurred within a range of about 0.3-30 nM using un-injured cerebellar microexplants (verified by counting cells displaying neurite outgrowth).

[2] = tested on: cerebellar microexplants; test: cerebellar microexplant neuronal migration assay; format: cell-based, rat
Source text: Another assay of this invention includes embodiments comprising cerebellar microexplants. Laminated cerebellar cortices of the two hemispheres were explanted from a P-4 Long Evans rat, cut into small pieces in GBSS with 0.65% D(+)glucose solution, and triturated by a 0.4 mm gauge needle and subsequently pressed through a 125 μm pore size sieve. The obtained microexplants were centrifuged (200×g) 2 times for a medium exchange into serum-free BSA-supplemented START V-medium (Biochrom). Finally, the microexplants were reconstituted in 500 μl STARTV-medium. For culturing, 38 μl of the cell suspension and 2 μl of migration-inducing factor (NRP-1) in 0.01 M sodium phosphate (pH 7.3) or phosphate alone (control) was incubated for 3 hours on a poly-D-lysine-coated cover slip in a 35 mm Petri dish under an atmosphere comprising 5% CO2 in air and 100% humidity at 34° C. Subsequently, 1 ml of STARTV-medium was added, and the cultures were evaluated after 2-3 days of culture (for example, see FIG. 2).
For immunohistochemistry and neuronal migration experiments, cerebellar microexplants were fixed after 2-3 days in culture after the following regime: microexplants were fixed by 2-minute, serial treatment with 0.4%; 1.2%; 3% paraformaldehyde/0.25% glutaraldehyde, respectively, followed by a 5 min incubation in 4% paraformaldehyde/0.25% glutaraldehyde in 0.1 M sodium phosphate (pH 7.4). MAP-2 was detected using the biotin-streptavidin/Cy3 detection system as described under the immunohistochemistry section of the thalamocortical OTCs.
Microexplants having a diameter between 100-120 μm were chosen for statistical analysis. For quantitative analysis of neuronal migration, an optical device having 10 consecutive rings of 100 μm diameter was applied over the microexplants. All neurons that had migrated after 48 h of culture were counted. Neurons located between circles 1 to 10 (0.1-1 mm) around the margin of the respective microexplant (see FIG. 2) were counted, and each circle was expressed as a percentage of total migrating cells. The unpaired Student's t-test was used for significance analysis. Results were given as mean values±standard deviation.

[3] = tested on: neural stem cells; test: neural stem cell differentiation assay, neuronal differentiation and axonal outgrowth; format: cell-based, mouse
Description: Neural stem cells were derived from E15 C3H mice forebrain and cultured as neurospheres in the presence of 20 ng/ml EGF and 10 ng/ml bFGF as described in Gritti et al. (2001). Briefly, timed pregnant mice were sacrificed and the embryos removed. Under sterile conditions the brains were removed and the forebrains dissected. The tissue was dissociated by trituration and pelleted by 75 g centrifugation for 10 minutes and the cells seeded in non-coated tissue culture flasks in NSA medium with growth factors. For passaging neurospheres were triturated and seeded as single cells.
Upon reaching a sufficient size, neurospheres were dissociated by trituration and plated at a density of 200,000 cells per well on laminin-coated 13 mm diameter coverslips that had been placed in Nunc 24 well plates. The plating medium was a 1:1 mixture of DMEM/F12 supplemented with N2 and Neurobasal supplemented with B27 and 2 mM glutamine. To enhance survival after plating the medium contained 2 ng/ml bFGF. After 24 h the medium was replaced with a neuronal differentiation-promoting medium (1:3 mixture of DMEM/F12 supplemented with N2 and Neurobasal supplemented with B27 and 2 mM glutamine) and except for the controls the test compound or IGF-1 was added simultaneously. The medium with fresh compound was exchanged every other day. Seven days after plating the differentiating cells were incubated for 20 minutes in differentiation medium containing 100 ng/ml Syto21 to label the nuclei of viable cells. Subsequently, they were fixed with 4% paraformaldehyde and immunostained with a mouse anti-βIII tubulin antibody and a goat anti-mouse Cy3-coupled secondary antibody.
After staining the coverslips were removed from the tissue culture plate and mounted on […], using Immunofluore fluorescent mounting medium. To analyse the percentage of neurons of total cells, with a Zeiss axiophot microscope, equipped with Axoivision software, at 20× magnification images of two random fields per well were taken in the red (tubulin stained neurons) and green (Syto21 stained nuclei) fluorescent channel. Neurons and nuclei per field were counted and the neuronal percentage of total cell number determined.

NRP-1: rat 16 amino acid neural regeneration peptide purified from hippocampal OTC supernatant, Tyr Asp Pro Glu ... Cys His-NH2 (YDPEAASAPGSGNPCH-NH2)
concentration of greatest effect on neuronal proliferation [1]: 3 nM
up regulation of neuronal cell proliferation ([1]; 3 nM): 81.2%
concentration sufficient to induce significantly enhanced migration of neurons [2]: 3 nM
migrating cerebellar cells distributed between 400-500 μm from microexplant margin ([2]; 3 nM, 2 days of culture): 7.3±2.8%
migrating cerebellar cells distributed between 500-600 μm from microexplant margin ([2]; 3 nM, 2 days of culture): 13.2±13.9%
distance from the cerebellar margin where most of the cells were distributed ([2]; two days after administration): 200-300 μm
distance from the margin of a significant population of cells ([2]; two days after administration): 500-600 μm

SEPEARRAPGRKGGVVCASLAADW-NH2 [NRP-7 segment SW, 24-mer form of mouse NRP-7]
maximum increase in beta-III-tubulin-positive neurons ([3]; 10 pM, 7 days differentiation): 2 fold
axonal outgrowth-promoting activity ([3]; 7 days differentiation): maximum activity for an increase in axonal length growth lies in the upper nanomolar range

KDPEARRAPGSLHPCLAAS-NH2 [NRP-2 segment KS, 19-mer fragment of NRP-2]
maximum increase in beta-III-tubulin-positive neurons ([3]; 1 0nM, 7 days differentiation): 2 fold
proliferation rate during differentiation of NSC ([3]; together with BrdU for 24 hrs): an increase in the proliferation rate
increased neuronal cell proliferation, greater than vehicle-treated controls ([1]; 300 μM): 117.5%
concentration range of induced neuronal proliferation ([1]; peptide 24 hrs after start of cultivation): 0.3 to 30 nM
